How the values were obtained:
Planococcus citri [1] = experiment: Field sticky-trap luring test with lures in a navel orange field; format: in vivo; conditions: inferred from lures A and C with high contents versus lure B with low contents
Description: The mixture of cis-(3-isopropenyl-2,2-dimethylcyclobutyl)methyl acetate, trans-(3-isopropenyl-2,2-dimethylcyclobutyl)methyl acetate, and (3-isopropylidene-2,2-dimethylcyclobutyl)methyl acetate obtained as in Example 35 was separated by 10% silver nitrate silica gel column chromatography (hexane:ethyl acetate=100:1). After the separation, they were mixed in a weight ratio of 100:43:4, 100:5:1, and 100:96:96. The mixtures were loaded each on a rubber cap made of isoprene each in an amount of 200 μg of cis-(3-isopropenyl-2,2-dimethylcyclobutyl)methyl acetate to prepare Lures A, B and C shown in the Table 1 below.
Lures A, B and C and the commercially available lure, Pherodis Planococcus citri (Koppert Biological Systems), were attached each to a sticky. Those and a sticky trap without a lure (blank) were placed in a navel orange field in Port Elizabeth, South Africa. Then, the number of lured and killed adult males of Planococcus citri (generic name: Citrus mealybug) in each trap was counted every other week. Each lure was changed every month.

Planococcus citri [2] = conditions: J. Econ. Entomol. 97, 361 (2004); cited from earlier work

C=C(C)[C@H]1C[C@H](COC(C)=O)C1(C)C (relative stereo) [trans-(3-isopropenyl-2,2-dimethylcyclobutyl)methyl acetate]
lure-inhibitory activity (surmised from the lure comparison) (Planococcus citri [1]): lure-inhibitory activity

C=C(C)[C@@H]1C[C@H](COC(C)=O)C1(C)C [(1S,3S)-(3-isopropenyl-2,2-dimethylcyclobutyl) methyl acetate]
sex pheromone activity / effect on the attraction (Planococcus citri [2]): not a sex pheromone substance, but does not disturb the attraction

CC(=O)OCC1CC(=C(C)C)C1(C)C (stereo not drawn) [(3-isopropylidene-2,2-dimethylcyclobutyl)methyl acetate]
lure-inhibitory activity (surmised from the lure comparison) (Planococcus citri [1]): lure-inhibitory activity

Reference: patent US12139454B2, “Dimethylcyclobutanone compounds, dimethylcyclobutane compounds, and processes for preparing the same” (Shin-Etsu Chemical Co., Ltd., priority 2019, dated 2024)
